Assay results: patent publication US9206200B2, “N-linked lactam M1 receptor positive allosteric mogulators” (Merck Sharp & Dohme Corp., priority 2011, dated 2015)
Like-named read-outs stand apart in the source and are kept apart here.

Target: T1, acetylcholine muscarinic M1 receptor (Homo sapiens, UniProt P11229)
T1 construct: expressed in transfected cells; host or cells: CHOnfat cells (CHO cells with an NFAT reporter) expressing hM1, kept under Geneticin selection
T1 sequence (P11229 1-460): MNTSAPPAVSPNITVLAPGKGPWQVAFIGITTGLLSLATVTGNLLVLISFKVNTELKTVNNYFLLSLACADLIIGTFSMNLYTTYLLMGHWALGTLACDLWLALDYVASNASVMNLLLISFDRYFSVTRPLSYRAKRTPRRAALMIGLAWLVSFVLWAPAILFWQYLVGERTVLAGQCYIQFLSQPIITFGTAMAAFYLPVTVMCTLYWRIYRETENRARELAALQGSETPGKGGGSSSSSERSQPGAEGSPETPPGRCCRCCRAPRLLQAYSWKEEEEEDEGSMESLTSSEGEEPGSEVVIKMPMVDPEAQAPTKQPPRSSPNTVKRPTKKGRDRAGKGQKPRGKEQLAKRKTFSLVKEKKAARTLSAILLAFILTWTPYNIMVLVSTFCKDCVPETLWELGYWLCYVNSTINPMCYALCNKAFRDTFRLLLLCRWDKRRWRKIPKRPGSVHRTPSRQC
Test: muscarinic FLIPR assay: intracellular calcium in CHOnfat/hM1 cells, potentiation of EC20 acetylcholine
Format: cell-based
Conditions: Table 2, CHOnfat/hM1 cells, FLIPR, EC20 acetylcholine (3 nM final)
How it was run: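 CHOnfat cells stably expressing human M1, Fluo-4AM-loaded, in HBSS with 20 mM HEPES, 2.5 mM probenecid, 1% BSA. Compounds preincubated 4 min (printed "4 mM") before an EC20 acetylcholine challenge (3 nM final). FLIPR intracellular Ca²⁺ signal compared with 3 nM acetylcholine alone to detect potentiation.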

EC50 (read-out: M1 Pot.) [nM] | SMILES | EC50 (M1 Pot.) [nM]
 | C#CC1(F)CCN(Cc2cc3c(c4ncccc24)CN(c2cccc(OC(=O)N(C)C)c2)C3=O)CC1 [Example 130, 3-{5-[(4-ethynyl-4-fluoropiperidin-1-yl)methyl]-7-oxo-7,9-dihydro-8H-pyrrolo[3,4-h]quinolin-8-yl}phenyl dimethylcarbamate] | 1430
33 | CC#CC1(F)CCN(Cc2cc3c(c4ncccc24)CN([C@H]2CCCC[C@@H]2O)C3=O)CC1 [Example 131, 5-[(4-fluoro-4-prop-1-yn-1-ylpiperidin-1-yl)methyl]-8-[(1S,2S)-2-hydroxycyclohexyl]-8,9-dihydro-7H-pyrrolo[3,4-h]quinolin-7-one] | 
246 | O=C1c2cc(CN3CCC(F)(C#CC4CC4)CC3)c3cccnc3c2CN1[C@H]1CCCC[C@@H]1O [Example 132, 5-{[4-(cyclopropylethynyl)-4-fluoropiperidin-1-yl]methyl}-8-[(1S,2S)-2-hydroxycyclohexyl]-8,9-dihydro-7H-pyrrolo[3,4-h]quinolin-7-one] | 
129 | O=C1c2cc(CN3CCC(F)(C#Cc4ccc(F)cc4)CC3)c3cccnc3c2CN1C1CCCCC1O (stereo not shown) [Example 133, 5-({4-fluoro-4-[(4-fluorophenyl)ethynyl]piperidin-1-yl}methyl)-8-(2-hydroxycyclohexyl)-8,9-dihydro-7H-pyrrolo[3,4-h]quinolin-7-one] | 
207 | O=C1c2cc(CN3CCC(F)(Cc4ccccc4)CC3)c3cccnc3c2CN1C1CCCCC1O (stereo not shown) [Example 134, 5-[(4-benzyl-4-fluoropiperidin-1-yl)methyl]-8-(2-hydroxycyclohexyl)-8,9-dihydro-7H-pyrrolo[3,4-h]quinolin-7-one] | 
156 | N#CC1(Cc2ccncc2)CCN(Cc2cc3c(c4ncccc24)CN(C2CCCCC2O)C3=O)CC1 (stereo not shown) [Example 135, 1-{[8-(2-hydroxycyclohexyl)-7-oxo-8,9-dihydro-7H-pyrrolo[3,4-h]quinolin-5-yl]methyl}-4-(pyridin-4-ylmethyl)piperidine-4-carbonitrile] | 
85 | O=C1c2cc(CN3CCC(c4ccccc4)CC3)c3cccnc3c2CN1C1CCCCC1O (stereo not shown) [Example 139, 8-(2-hydroxycyclohexyl)-5-[(4-phenylpiperidin-1-yl)methyl]-8,9-dihydro-7H-pyrrolo[3,4-h]quinolin-7-one] | 
3200 | CC1c2c(cc(CN3CCC(c4ccccc4)CC3)c3cccnc23)C(=O)N1C1CCCCC1O (stereo not shown) [Example 140, 8-(2-hydroxycyclohexyl)-9-methyl-5-[(4-phenylpiperidin-1-yl)methyl]-8,9-dihydro-7H-pyrrolo[3,4-h]quinolin-7-one] | 
490 | CC1c2c(cc(CN3CCC(c4ccccc4)CC3)c3cccnc23)C(=O)N1C1CCCCC1O (stereo not shown) [Example 141, 8-(2-hydroxycyclohexyl)-9-methyl-5-[(4-phenylpiperidin-1-yl)methyl]-8,9-dihydro-7H-pyrrolo[3,4-h]quinolin-7-one] | 
51 | O=C1c2cc(CN3CCC(c4ccncc4)CC3)c3cccnc3c2CN1C1CCCCC1O (stereo not shown) [Example 142, 8-(2-hydroxycyclohexyl)-5-[(4-pyridin-4-ylpiperidin-1-yl)methyl]-8,9-dihydro-7H-pyrrolo[3,4-h]quinolin-7-one] | 
89 | CC1c2c(cc(CN3CCC(c4ccncc4)CC3)c3cccnc23)C(=O)N1C1CCCCC1O (stereo not shown) [Example 143, 8-(2-hydroxycyclohexyl)-9-methyl-5-[(4-pyridin-4-ylpiperidin-1-yl)methyl]-8,9-dihydro-7H-pyrrolo[3,4-h]quinolin-7-one] | 
11 | O=C1c2cc(CN3CCC(F)(c4ccccn4)CC3)c3cccnc3c2CN1C1CCCCC1O (stereo not shown) [Example 146, 5-[(4-fluoro-4-pyridin-2-ylpiperidin-1-yl)methyl]-8-(2-hydroxycyclohexyl)-8,9-dihydro-7H-pyrrolo[3,4-h]quinolin-7-one] | 
70 | CC1c2c(cc(CN3CCC(F)(c4ccccn4)CC3)c3cccnc23)C(=O)N1[C@@H]1CCCC[C@@H]1O (stereo partly drawn) [Example 147, 5-[(4-fluoro-4-pyridin-2-ylpiperidin-1-yl)methyl]-8-[(1R,2S)-2-hydroxycyclohexyl]-9-methyl-8,9-dihydro-7H-pyrrolo[3,4-h]quinolin-7-one] | 
8 | C[C@@H]1c2c(cc(CN3CCC(F)(c4ccccn4)CC3)c3cccnc23)C(=O)N1[C@H]1CCCC[C@@H]1O [Example 153, (9R)-5-[(4-fluoro-4-pyridin-2-ylpiperidin-1-yl)methyl]-8-[(1S,2S)-2-hydroxycyclohexyl]-9-methyl-8,9-dihydro-7H-pyrrolo[3,4-h]quinolin-7-one] | 
42 | Cn1cc(N2CCN(Cc3cc4c(c5ncccc35)CN([C@H]3CCCC[C@@H]3O)C4=O)CC2)cn1 [Example 157, 8-[(1S,2S)-2-hydroxycyclohexyl]-5-{[4-(1-methyl-1H-pyrazol-4-yl)piperazin-1-yl]methyl}-8,9-dihydro-7H-pyrrolo[3,4-h]quinolin-7-one] | 

SMILES | EC50 (read-out: M1 Pot.) [nM] | EC50 (M1 Pot.) [nM]
N#CC1(c2ccccc2)CCN(Cc2cc3c(c4ncccc24)CN([C@H]2CCCC[C@@H]2O)C3=O)CC1 [Example 136, 1-({8-[(1S,2S)-2-hydroxycyclohexyl]-7-oxo-8,9-dihydro-7H-pyrrolo[3,4-h]quinolin-5-yl}methyl)-4-phenylpiperidine-4-carbonitrile] | 14 | 
CC1c2c(cc(CN3CCC(C#N)(c4ccccc4)CC3)c3cccnc23)C(=O)N1C1CCCCC1O (stereo not shown) [Example 137, 1-{[8-(2-hydroxycyclohexyl)-9-methyl-7-oxo-8,9-dihydro-7H-pyrrolo[3,4-h]quinolin-5-yl]methyl}-4-phenylpiperidine-4-carbonitrile] | 480 | 
CC1c2c(cc(CN3CCC(C#N)(c4ccccc4)CC3)c3cccnc23)C(=O)N1C1CCCCC1O (stereo not shown) [Example 138, 1-{[8-(2-hydroxycyclohexyl)-9-methyl-7-oxo-8,9-dihydro-7H-pyrrolo[3,4-h]quinolin-5-yl]methyl}-4-phenylpiperidine-4-carbonitrile] | 69 | 
O=C1c2cc(CN3CCC(O)(c4ccncc4)CC3)c3cccnc3c2CN1C1CCCCC1O (stereo not shown) [Example 144, 8-(2-hydroxycyclohexyl)-5-[(4-hydroxy-4-pyridin-4-ylpiperidin-1-yl)methyl]-8,9-dihydro-7H-pyrrolo[3,4-h]quinolin-7-one] | 510 | 
N#CC1(c2ccccn2)CCN(Cc2cc3c(c4ncccc24)CN([C@H]2CCCC[C@@H]2O)C3=O)CC1 [Example 145, 1-({8-[(1S,2S)-2-hydroxycyclohexyl]-7-oxo-8,9-dihydro-7H-pyrrolo[3,4-h]quinolin-5-yl}methyl)-4-pyridin-2-ylpiperidine-4-carbonitrile] | 7.6 | 
Cc1ccnc(C2(C#N)CCN(Cc3cc4c(c5ncccc35)CN(C3CCCCC3O)C4=O)CC2)c1 (stereo not shown) [Example 148, 1-{[8-(2-hydroxycyclohexyl)-7-oxo-8,9-dihydro-7H-pyrrolo[3,4-h]quinolin-5-yl]methyl}-4-(4-methylpyridin-2-yl)piperidine-4-carbonitrile] | 4.7 | 
COc1cccc(C2(C#N)CCN(Cc3cc4c(c5ncccc35)CN([C@H]3CCCC[C@@H]3O)C4=O)CC2)n1 [Example 154, 1-({8-[(1S,2S)-2-hydroxycyclohexyl]-7-oxo-8,9-dihydro-7H-pyrrolo[3,4-h]quinolin-5-yl}methyl)-4-(6-methoxypyridin-2-yl)piperidine-4-carbonitrile] | 19 | 
